In US10165777B2, “Substituted pyrazolylpyrazole derivative and use of same as herbicide” (KYOYU AGRI CO., LTD., priority 2015, dated 2019):

Legend:
Format in all cases: in vivo
[1] = system: Galinsoga parviflora; experiment: Weed foliar treatment test (Test 4, 4.0 to 5.0 leaf stage); details: 10 g a.i./10 a; foliar spray at 4.0 to 5.0 leaf stage of Digitaria ciliaris; 20 days
Description: (§1) Field soil was filled into a 1/4500 are pot followed by seeding with Digitaria ciliaris and Galinsoga parviflora, covering with soil and cultivating in a glass greenhouse at an average atmospheric temperature of 25° C.
(§2) Wettable powders of Target Compound (I) shown in Table 1 prepared in compliance with the preparation examples were diluted with water to the prescribed amount of chemical and uniformly sprayed onto the weeds using 100 liters of sprayed water per 10 are when Digitaria ciliaris had grown to the 4.0 to 5.0 leaf stage (plant height: 10 cm to 15 cm).
(§3) After treating for 20 days in a glass greenhouse at an average atmospheric temperature of 25° C., the herbicidal efficacy thereof was investigated.
(§4) Evaluation of herbicidal efficacy was carried out in the same manner as the above-mentioned Test Example 1.

[2] = system: Digitaria ciliaris; experiment: as above; details: 10 g a.i./10 a; foliar spray at 4.0 to 5.0 leaf stage of Digitaria ciliaris (plant height 10 cm to 15 cm); 20 days
Description: as §1, §2, §3, §4

[3] = system: Chenopodium album; experiment: Weed foliar treatment test (Test 3, 1.0 to 2.0 leaf stage); details: foliar spray at 1.0 to 2.0 leaf stage of Digitaria ciliaris, 3 weeks
Description: (§5) Soil was filled into a 1/6000 are pot followed by seeding with Digitaria ciliaris, Chenopodium album and Amaranthus retroflexus, covering with soil, and cultivating in a glass greenhouse at an average atmospheric temperature of 25° C. Wettable powders of Target Compound (I) shown in Table 1 prepared in compliance with the preparation examples were diluted with water to the prescribed amount of chemical and uniformly sprayed onto the weeds using 150 liters of sprayed water per 10 are when Digitaria ciliaris had grown to the 1.0 to 2.0 leaf stage. After treating for 3 weeks in a glass greenhouse at an average atmospheric temperature of 25° C., the herbicidal efficacy thereof was investigated. Evaluation of herbicidal efficacy was carried out in the same manner as the above-mentioned Test Example 1.

[4] = system: Digitaria ciliaris; experiment: as above; details: foliar spray at 1.0 to 2.0 leaf stage of Digitaria ciliaris, 3 weeks
Description: as §5

[5] = system: Amaranthus retroflexus; experiment: as above; details: foliar spray at 1.0 to 2.0 leaf stage of Digitaria ciliaris, 3 weeks
Description: as §5

[6] = system: Oryza sativa; experiment: Paddy herbicidal activity test, phytotoxicity to transplanted rice; details: rice transplanted in 2.0 leaf stage, 30 days
Description: (§6) 1. Paddy Herbicidal Activity Test Rice paddy soil was filled into a 1/10000 are pot followed by the addition of suitable amounts of water and chemical fertilizer, kneading, seeding with Echinochloa crus-galli, Monochoria vaginalis and Scirpus juncoides and maintaining in an irrigated state at a water depth of 3 cm. Wettable powders of Target Compound (I) shown in Table 1 prepared in compliance with the preparation examples were diluted with a suitable amount of water, rice plants in the 2.0 leaf stage were transplanted during 3.5 leaf stage of Echinochloa crus-galli, and treated by dropping in chemical in the prescribed amount per 10 are using a pipette. After treating for 30 days in a glass greenhouse at an average atmospheric temperature of 30° C., the herbicidal efficacy thereof was investigated. Evaluation of herbicidal efficacy was carried out by comparing growth inhibition rate (%) with an untreated group, while evaluation of phytotoxicity was carried out by comparing growth inhibition rate (%) with the state of a complete eradication group, and were evaluated at 11 levels indicated below.

[7] = system: Chenopodium album; experiment: Farming soil treatment test; details: soil surface spray prior to weed growth, 30 days
Description: (§7) Field soil was filled into a 1/6000 are pot followed by seeding with Digitaria ciliaris, Chenopodium album and Amaranthus retroflexus and covering with soil. Wettable powders of compounds of formula (I) shown in Table 1 prepared in compliance with the preparation examples were diluted with water to the prescribed amount of chemical and uniformly sprayed onto each soil surface layer using 100 liters of sprayed water per 10 are prior to weed growth following seeding. After treating for 30 days in a glass greenhouse at an average atmospheric temperature of 30° C., the herbicidal efficacy thereof was investigated. Evaluation of herbicidal efficacy was carried out in the same manner as the above-mentioned Test Example 1.

[8] = system: Digitaria ciliaris; experiment: Farming soil treatment test; details: soil surface spray prior to weed growth, 30 days
Description: as §7

[9] = system: Amaranthus retroflexus; experiment: Farming soil treatment test; details: soil surface spray prior to weed growth, 30 days
Description: as §7

[10] = system: Scirpus juncoides; experiment: Paddy herbicidal activity test; details: irrigated pot, 30 days
Description: as §6

[11] = system: Monochoria vaginalis; experiment: Paddy herbicidal activity test; details: irrigated pot, 30 days
Description: as §6

[12] = system: Echinochloa crus-galli; experiment: Paddy herbicidal activity test; details: irrigated pot, treated at 3.5 leaf stage of Echinochloa crus-galli, 30 days
Description: as §6

| Structure (SMILES) | herbicidal efficacy, Galinsoga parviflora [1] | herbicidal efficacy, Digitaria ciliaris [2] | herbicidal efficacy, Chenopodium album ([3]; 5 g a.i./10 a) | herbicidal efficacy, Chenopodium album ([3]; 10 g a.i./10 a) | herbicidal efficacy, Digitaria ciliaris ([4]; 5 g a.i./10 a) | herbicidal efficacy, Digitaria ciliaris ([4]; 10 g a.i./10 a) | herbicidal efficacy, Amaranthus retroflexus ([5]; 5 g a.i./10 a) | herbicidal efficacy, Amaranthus retroflexus ([5]; 10 g a.i./10 a) | phytotoxicity, Oryza sativa ([6]; 1 g a.i./10 a) | phytotoxicity, Oryza sativa ([6]; 5 g a.i./10 a) | herbicidal efficacy, Chenopodium album ([7]; 5 g a.i./10 a) | herbicidal efficacy, Chenopodium album ([7]; 10 g a.i./10 a) | herbicidal efficacy, Digitaria ciliaris ([8]; 5 g a.i./10 a) | herbicidal efficacy, Digitaria ciliaris ([8]; 10 g a.i./10 a) | herbicidal efficacy, Amaranthus retroflexus ([9]; 5 g a.i./10 a) | herbicidal efficacy, Amaranthus retroflexus ([9]; 10 g a.i./10 a) | herbicidal efficacy, Scirpus juncoides ([10]; 1 g a.i./10 a) | herbicidal efficacy, Scirpus juncoides ([10]; 5 g a.i./10 a) | herbicidal efficacy, Monochoria vaginalis ([11]; 1 g a.i./10 a) | herbicidal efficacy, Monochoria vaginalis ([11]; 5 g a.i./10 a) | further results |
| --- | --- | --- | --- | --- | --- | --- | --- | --- | --- | --- | --- | --- | --- | --- | --- | --- | --- | --- | --- | --- | --- |
| N#Cc1cnn(-c2nn3c(c2Cl)CCCC3)c1/C=C/c1ncccn1 [Compound 3.39, reference compound] | 3 (30% to less than 40%) | 2 (20% to less than 30%) | 4 (40% to less than 50%) | 5 (50% to less than 60%) | 2 (20% to less than 30%) | 3 (30% to less than 40%) | 1 (10% to less than 20%) | 2 (20% to less than 30%) | 0 (0% to less than 10% (growth inhibition rate)) | 1 (10% to less than 20%) | 4 (40% to less than 50%) | 4 (40% to less than 50%) | 3 (30% to less than 40%) | 4 (40% to less than 50%) | 2 (20% to less than 30%) | 3 (30% to less than 40%) | 0 (0% to less than 10% (growth inhibition rate)) | 0 (0% to less than 10% (growth inhibition rate)) | 2 (20% to less than 30%) | 3 (30% to less than 40%) | herbicidal efficacy, Echinochloa crus-galli ([12]; 1 g a.i./10 a): 1 (10% to less than 20%); herbicidal efficacy, Echinochloa crus-galli ([12]; 5 g a.i./10 a): 2 (20% to less than 30%) |
| N#Cc1cnn(-c2nn3c(c2Cl)CCCC3)c1/C=C/c1ccccn1 [Compound 3.43, reference compound] | 3 (30% to less than 40%) | 1 (10% to less than 20%) | 3 (30% to less than 40%) | 4 (40% to less than 50%) | 1 (10% to less than 20%) | 3 (30% to less than 40%) | 0 (0% to less than 10% (growth inhibition rate)) | 2 (20% to less than 30%) | 1 (10% to less than 20%) | 2 (20% to less than 30%) | 2 (20% to less than 30%) | 3 (30% to less than 40%) | 1 (10% to less than 20%) | 3 (30% to less than 40%) | 2 (20% to less than 30%) | 2 (20% to less than 30%) | 0 (0% to less than 10% (growth inhibition rate)) | 1 (10% to less than 20%) | 3 (30% to less than 40%) | 3 (30% to less than 40%) | herbicidal efficacy, Echinochloa crus-galli ([12]; 1 g a.i./10 a): 2 (20% to less than 30%); herbicidal efficacy, Echinochloa crus-galli ([12]; 5 g a.i./10 a): 3 (30% to less than 40%) |
| N#Cc1cnn(-c2nn3c(c2Br)CCCC3)c1/C=C/c1ccccn1 [Compound 3.44, reference compound] | 0 (0% to less than 10% (growth inhibition rate)) | 0 (0% to less than 10% (growth inhibition rate)) | 1 (10% to less than 20%) | 2 (20% to less than 30%) | 0 (0% to less than 10% (growth inhibition rate)) | 0 (0% to less than 10% (growth inhibition rate)) | 0 (0% to less than 10% (growth inhibition rate)) | 0 (0% to less than 10% (growth inhibition rate)) | 0 (0% to less than 10% (growth inhibition rate)) | 1 (10% to less than 20%) | 2 (20% to less than 30%) | 3 (30% to less than 40%) | 0 (0% to less than 10% (growth inhibition rate)) | 1 (10% to less than 20%) | 0 (0% to less than 10% (growth inhibition rate)) | 2 (20% to less than 30%) | 0 (0% to less than 10% (growth inhibition rate)) | 1 (10% to less than 20%) | 2 (20% to less than 30%) | 2 (20% to less than 30%) | herbicidal efficacy, Echinochloa crus-galli ([12]; 1 g a.i./10 a): 1 (10% to less than 20%); herbicidal efficacy, Echinochloa crus-galli ([12]; 5 g a.i./10 a): 2 (20% to less than 30%) |
| N#Cc1cnn(-c2nn3c(c2Cl)CCCC3)c1N=Cc1ccncc1 [Compound 23] | 10 (100%) | 9 (90% to less than 100%) | 10 (100%) | 10 (100%) | 9 (90% to less than 100%) | 10 (100%) | 9 (90% to less than 100%) | 10 (100%) | 0 (0% to less than 10% (growth inhibition rate)) | 1 (10% to less than 20%) | 10 (100%) | 10 (100%) | 9 (90% to less than 100%) | 10 (100%) | 9 (90% to less than 100%) | 10 (100%) | 10 (100%) | 10 (100%) | 10 (100%) | 10 (100%) | herbicidal efficacy, Echinochloa crus-galli ([12]; 1 g a.i./10 a): 10 (100%); herbicidal efficacy, Echinochloa crus-galli ([12]; 5 g a.i./10 a): 10 (100%) |
